Experimental findings from US20220221458A1, “NOROVIRUS-BINDING PEPTIDE” (Kao Corporation, priority 2019, published 2022) are described below.

The subject of the test is norovirus VLPs (GII.4, GII.3, GII.17). Kind of test: In vitro selection by cDNA display against VLPs with appearance frequency analysis of sequences. As to conditions: count among peptide aptamer sequences obtained after in vitro selection cycles (7 cycles GII.4, 5 cycles GII.3 and GII.17).
For “11 (GHPNPR; Designed peptide) [compound 11]”, the “Appearance Frequency” value is 15.
For the substance “150 (STVRHR; Designed peptide) [compound 150]”, the “Appearance Frequency” value was 7.
In the case of “40 (FPFGST; Designed peptide) [compound 40]”, the “Appearance Frequency” value is 10.
As for “207 (LHHSSY; Designed peptide) [compound 207]”, the figure is 6; as for “233 (RGTMWL; Designed peptide) [compound 233]”, 6; as for “171 (DWPYSR; Designed peptide) [compound 171]”, 6.
Take “144 (RRGDNY; Designed peptide) [compound 144]”: the “Appearance Frequency” value is given as 7.
As for “166 (ATITVW; Designed peptide) [compound 166]”, the figure is 6; as for “146 (RSAAGD; Designed peptide) [compound 146]”, 7.
Take “210 (LSLRSQ; Designed peptide) [compound 210]”: the “Appearance Frequency” value amounted to 6.
Consider “214 (MSNKMV; Designed peptide) [compound 214]”, for which the “Appearance Frequency” value is on record as 6.
As for “28 (VMMQCP; Designed peptide) [compound 28]”, the figure is 12; as for “141 (RHKVHH; Designed peptide) [compound 141]”, 7.
As for “41 (GNIPGH; Designed peptide) [compound 41]”, the figure is 10.
As for “172 (ECHHVH; Designed peptide) [compound 172]”, the figure is 6; as for “202 (ILTHQH; Designed peptide) [compound 202]”, 6; as for “137 (QDRVTS; Designed peptide) [compound 137]”, 7.
For the substance “248 (SHWRSY; Designed peptide) [compound 248]”, the “Appearance Frequency” value amounted to 6.
As for “112 (GHFDAR; Designed peptide) [compound 112]”, the figure is 7; as for “111 (GGGVTT; Designed peptide) [compound 111]”, 7.
For “152 (SWPFCT; Designed peptide) [compound 152]”, the “Appearance Frequency” value worked out at 7.
Take “186 (HDSRIR; Designed peptide) [compound 186]”: the “Appearance Frequency” value was 6.
“86 (MSTHKV; Designed peptide) [compound 86]”: the “Appearance Frequency” value was 8.
As for “130 (NASRFY; Designed peptide) [compound 130]”, the figure is 7.
As for “75 (FTMHTN; Designed peptide) [compound 75]”, the figure is 8.
As for “228 (QRVSFL; Designed peptide) [compound 228]”, the figure is 6.
As for “162 (YRARMS; Designed peptide) [compound 162]”, the “Appearance Frequency” value stood at 7.
Consider “37 (WEVALH; Designed peptide) [compound 37]”, for which the “Appearance Frequency” value worked out at 11.
As for “239 (RLRDPQ; Designed peptide) [compound 239]”, the figure is 6; as for “188 (HFRRRV; Designed peptide) [compound 188]”, 6.
As for “4 (HLRSIR; Designed peptide) [compound 4]”, the “Appearance Frequency” value came out at 18.
As to “244 (RTVPSS; Designed peptide) [compound 244]”, the “Appearance Frequency” value is 6.
Regarding “167 (CLHFAL; Designed peptide) [compound 167]”, the “Appearance Frequency” value is listed as 6.
As for “90 (SSCVMP; Designed peptide) [compound 90]”, the figure is 8.
As for “218 (NGHSHA; Designed peptide) [compound 218]”, the figure is 6.
In the case of “45 (RPFTML; Designed peptide) [compound 45]”, the “Appearance Frequency” value worked out at 10.
As for “220 (NPVHIK; Designed peptide) [compound 220]”, the figure is 6; as for “245 (RYMPVA; Designed peptide) [compound 245]”, 6; as for “119 (HYRSKS; Designed peptide) [compound 119]”, 7.
As for “169 (DRWGSK; Designed peptide) [compound 169]”, the figure is 6.
As for “14 (RSVRMH; Designed peptide) [compound 14]”, the figure is 14; as for “67 (SKHLAG; Designed peptide) [compound 67]”, 9.
As for “252 (SRSHWG; Designed peptide) [compound 252]”, the “Appearance Frequency” value turned out to be 6.
In the case of “83 (KTRAIN; Designed peptide) [compound 83]”, the “Appearance Frequency” value came out at 8.
Turning to “63 (REESFS; Designed peptide) [compound 63]”, the “Appearance Frequency” value was found to be 9.
As for “234 (RHGQFF; Designed peptide) [compound 234]”, the figure is 6; as for “253 (SSKSFA; Designed peptide) [compound 253]”, 6; as for “89 (SRSICS; Designed peptide) [compound 89]”, 8.
As for “42 (GNSPYT; Designed peptide) [compound 42]”, the “Appearance Frequency” value is reported as 10.
As for “66 (SGYYRV; Designed peptide) [compound 66]”, the figure is 9.
As for “43 (HIHGRE; Designed peptide) [compound 43]”, the figure is 10.
For the substance “125 (LASMWR; Designed peptide) [compound 125]”, the “Appearance Frequency” value was found to be 7.
As for “192 (HLGFHT; Designed peptide) [compound 192]”, the figure is 6.
In the case of “124 (KVHGST; Designed peptide) [compound 124]”, the “Appearance Frequency” value was 7.
As for “39 (EMSRHC; Designed peptide) [compound 39]”, the figure is 10; as for “221 (NRVKPR; Designed peptide) [compound 221]”, 6.
On to “183 (GMDLRS; Designed peptide) [compound 183]”, for which the “Appearance Frequency” value came out at 6.
As for “97 (VISLET; Designed peptide) [compound 97]”, the figure is 8; as for “260 (VMSPCN; Designed peptide) [compound 260]”, 6.
Take “113 (GMSCGI; Designed peptide) [compound 113]”: the “Appearance Frequency” value amounted to 7.
As for “191 (HLAHKK; Designed peptide) [compound 191]”, the figure is 6; as for “93 (THACAH; Designed peptide) [compound 93]”, 8.
As for “101 (YEGRND; Designed peptide) [compound 101]”, the figure is 8; as for “35 (TKRQNL; Designed peptide) [compound 35]”, 11; as for “225 (PWTVPN; Designed peptide) [compound 225]”, 6.
Take “250 (SKVIRW; Designed peptide) [compound 250]”: the “Appearance Frequency” value is on record as 6.
Take “165 (ARNHGS; Designed peptide) [compound 165]”: the “Appearance Frequency” value was 6.
Consider “38 (AGYPRY; Designed peptide) [compound 38]”, for which the “Appearance Frequency” value is reported as 10.
As for “265 (WVFVKH; Designed peptide) [compound 265]”, the “Appearance Frequency” value amounted to 6.
As for “15 (SIGVDR; Designed peptide) [compound 15]”, the figure is 14.
As for “187 (HDYVSE; Designed peptide) [compound 187]”, the figure is 6; as for “267 (YKASHG; Designed peptide) [compound 267]”, 6; as for “230 (QYCFVG; Designed peptide) [compound 230]”, 6.
As for “54 (FDHFYS; Designed peptide) [compound 54]”, the figure is 9; as for “100 (WDRPAF; Designed peptide) [compound 100]”, 8; as for “50 (VIEMLD; Designed peptide) [compound 50]”, 10.
Take “264 (WTMSPA; Designed peptide) [compound 264]”: the “Appearance Frequency” value was 6.
Consider “157 (VRPSNG; Designed peptide) [compound 157]”, for which the “Appearance Frequency” value was determined as 7.
For “76 (GGSHST; Designed peptide) [compound 76]”, the “Appearance Frequency” value was 8.
On to “80 (HICIRR; Designed peptide) [compound 80]”, for which the “Appearance Frequency” value turned out to be 8.
Consider “110 (GFAISR; Designed peptide) [compound 110]”, for which the “Appearance Frequency” value was 7.
As for “262 (VPLLSR; Designed peptide) [compound 262]”, the figure is 6; as for “158 (VWYWTS; Designed peptide) [compound 158]”, 7.
As to “213 (MQFELV; Designed peptide) [compound 213]”, the “Appearance Frequency” value came out at 6.
As for “108 (FWHARL; Designed peptide) [compound 108]”, the figure is 7; as for “256 (STSVDW; Designed peptide) [compound 256]”, 6.
“126 (LFHPWV; Designed peptide) [compound 126]”: the “Appearance Frequency” value worked out at 7.
In the case of “72 (DFGQSS; Designed peptide) [compound 72]”, the “Appearance Frequency” value amounted to 8.
As for “21 (GKFFCH; Designed peptide) [compound 21]”, the figure is 12; as for “116 (HHRLHG; Designed peptide) [compound 116]”, 7.
